The structures appear in SMILES notation.

The text below walks through data of patent publication US9926305B2, “Salts” (Bayer Pharma Aktiengesellschaft, priority 2013, dated 2018).

The conditions of data set [1]: for some applications; suitability for use in formulations.
A short description of data set [2]: storage stability after processing via suspensions. In kind it is physicochemical. The note with it: crystalline salt, even after processing via suspensions.

As to `Cn1c(=O)oc2cc(-n3cc(C(=O)O)c(=O)n([C@@H]4CCc5c4cccc5C(F)(F)F)c3=O)ccc21` [free acid, 1-(3-Methyl-2-oxo-2,3-dihydro-1,3-benzoxazol-6-yl)-2,4-dioxo-3-[(1R)-4-(trifluoromethyl)-2,3-dihydro-1H-inden-1-yl]-1,2,3,4-tetrahydropyrimidine-5-carboxylic acid], the solubility entry in data set [1] is “insufficient solubility”. For the compound `Cn1c(=O)oc2cc(-n3cc(C(=O)[O-])c(=O)n([C@@H]4CCc5c4cccc5C(F)(F)F)c3=O)ccc21.[K+]` [potassium salt, potassium salt of 1-(3-methyl-2-oxo-2,3-dihydro-1,3-benzoxazol-6-yl)-2,4-dioxo-3-[(1R)-4-(trifluoromethyl)-2,3-dihydro-1H-inden-1-yl]-1,2,3,4-tetrahydropyrimidine-5-carboxylic acid], the storage stability result in data set [2] is recorded as “storage-stable”. As to `Cn1c(=O)oc2cc(-n3cc(C(=O)O)c(=O)n([C@@H]4CCc5c4cccc5C(F)(F)F)c3=O)ccc21.NCCCC[C@H](N)C(=O)O` [L-lysine salt, L-lysine salt of 1-(3-methyl-2-oxo-2,3-dihydro-1,3-benzoxazol-6-yl)-2,4-dioxo-3-[(1R)-4-(trifluoromethyl)-2,3-dihydro-1H-inden-1-yl]-1,2,3,4-tetrahydropyrimidine-5-carboxylic acid], the storage stability entry in data set [2] is on record as “storage-stable”. Take `Cn1c(=O)oc2cc(-n3cc(C(=O)[O-])c(=O)n([C@@H]4CCc5c4cccc5C(F)(F)F)c3=O)ccc21.[Na+]` [sodium salt, sodium salt of 1-(3-methyl-2-oxo-2,3-dihydro-1,3-benzoxazol-6-yl)-2,4-dioxo-3-[(1R)-4-(trifluoromethyl)-2,3-dihydro-1H-inden-1-yl]-1,2,3,4-tetrahydropyrimidine-5-carboxylic acid]: the storage stability result in data set [2] is listed as “storage-stable”.
